Experimental data reported in paper PMC12040169 (PLOS Biology, 2025).

Test: in vitro
Conditions: human, hela cells, % viability

Compound `CCc1ccc(CNC(=O)Cn2nnc(-c3ccc(CNCCc4ccc(OC)c(OC)c4)cc3)n2)cc1` [CBK155008T] has a viability at 28.5 h, 10 µM of 77.2%.

With `O=C(NCc1cccnc1)c1ccc2c(c1)C(=O)N(Cc1ccco1)C2=O` [CBK269675] the viability at 28.5 h, 10 µM was 88.6%.

In the case of `O=C(c1ccsc1NS(=O)(=O)/C=C/c1ccccc1)N1CCOCC1` [CBK042285], the viability at 28.5 h, 10 µM is reported as 90.8%.

`NC(=O)c1cccc(Cn2c3c(c4cccc(C(=O)O)c42)CCCCC3)c1` [CBK024834] showed a viability at 28.5 h, 10 µM of 98.6%.

Compound `COc1ccc(C(CC(=O)c2ccc(C)cc2)Nc2ccc([N+](=O)[O-])cc2)cc1` (centres unmarked) [CBK268187] has a viability at 28.5 h, 10 µM of 92.2%.

`CC(C)[C@H](CO)n1c(=O)[nH]c2ncc(-c3ccco3)nc21` [CBK064479] showed a viability at 28.5 h, 10 µM of 86.7%.

Work on `Cc1ccc(SCc2nc3ncccn3c2Br)cc1` [CBK027744] yielded a viability at 28.5 h, 10 µM of 85.2%.

`CCCc1[nH]nc(O)c1CCc1ccc(OC)cc1OC` [CBK081123] gave a viability at 28.5 h, 10 µM of 95.5%.

In the case of `CC(C)(CO)Cn1c(=O)[nH]c2ncc(-c3ccco3)nc21` [CBK064721], the viability at 28.5 h, 10 µM is reported as 98.8%.

In the case of `COc1ccc(CN(C)c2c(C)nc3c(OCCc4cccc(OC)c4)cccn23)cc1` [CBK147467], the viability at 28.5 h, 10 µM is reported as 109%.

With `CC1CCCN(CC(C)NC(=O)Cn2cnc3ccc(F)cc3c2=O)C1` (centres unmarked) [CBK305953] the viability at 28.5 h, 10 µM was 91.5%.

With `Cc1ccc(-c2csc3ncnc(SCc4nc5ccccc5[nH]4)c23)cc1` [CBK267590] the viability at 28.5 h, 10 µM was 83.5%.

`Cc1ccc(N2C(=O)/C(=C/c3ccc(OCC(=O)O)c(Cl)c3)C(=O)NC2=S)c(C)c1` [CBK264043] gave a viability at 28.5 h, 10 µM (bulk resorufin, single well) of 109%.

With `O=C(c1ccccc1-n1cccc1)N1CCCC1` [CBK149608] the viability at 28.5 h, 10 µM was 81.6%.

In the case of `CCOC(=O)c1sc(Nc2nc(C)cc(OC)n2)nc1C` [CBK264822], the viability at 28.5 h, 10 µM is reported as 108%.

In the case of `CC(C)NC(=O)NC(=O)C1CCN(CCOc2ccc(Cl)cc2Cl)CC1` [CBK034949], the viability at 28.5 h, 10 µM is reported as 106%.

Compound `Cc1c(C(=O)O)sc(S(=O)(=O)N2CCN(C(=O)c3ccc(F)cc3)CC2)c1C(=O)O` [CBK297118] has a viability at 28.5 h, 10 µM of 107%.

`COC(=O)c1ccccc1NC(=O)COc1ccc(Br)c(C)c1` [CBK263152] showed a viability at 28.5 h, 10 µM of 89.4%.

Compound `C=CCSc1nc2ccccc2c(=O)n1CCc1ccccc1` [CBK055285] has a viability at 28.5 h, 10 µM of 81.9%.

`CCc1nn(Cc2ccccn2)c(=O)c2cc3sc(C)cc3n12` [CBK284113] gave a viability at 28.5 h, 10 µM of 77%.

For `CC(C)Oc1ccc(C(=O)N2CC(C)C(N3CCOCC3)C2)cn1` (centres unmarked) [CBK304497], the viability at 28.5 h, 10 µM was 110%.

Compound `O=C(N1CCC(Oc2nccnc2OCc2ccc(Cl)cc2F)CC1)C(F)(F)F` [CBK164142] has a viability at 28.5 h, 10 µM of 89.5%.

Compound `O=c1c(C(F)(F)F)cccn1Cc1ccccc1` [CBK023620] has a viability at 28.5 h, 10 µM of 107%.

`COc1ccc(-c2nn(-c3ccccc3)cc2/C=C2\SC(N3CCC(C(N)=O)CC3)=NC2=O)cc1` [CBK265178] showed a viability at 28.5 h, 10 µM of 105%.

With `NC(=O)C1(Cc2ccc(-c3ccccc3)cc2)CCN(C(=O)c2ccccc2)CC1` [CBK285789] the viability at 28.5 h, 10 µM was 95.1%.

In the case of `O=C(NCc1ccncc1)c1nccnc1-c1ccc(COc2ccccc2)cc1` [CBK050836], the viability at 28.5 h, 10 µM is reported as 88.1%.

Compound `CC(C)(C)NC(=O)CN1C(=O)N2CCCN=C2c2ccccc21` [CBK284404] has a viability at 28.5 h, 10 µM of 89.7%.

For `C=CCNC(=O)N[C@H]1CCN2C(=O)c3ccccc3NC(=O)[C@@H]2C1` [CBK289568], the viability at 28.5 h, 10 µM was 102%.

In the case of `NC(=O)C1CCN(C(=O)Cc2csc(COc3ccc(Cl)cc3)n2)CC1` [CBK304519], the viability at 28.5 h, 10 µM is reported as 81.9%.

For `Cc1cccc(-c2noc(CN(C(=O)c3ccc4c(c3)OCO4)C(C)C)n2)c1` [CBK268817], the viability at 28.5 h, 10 µM was 98.1%.

In the case of `CN(C)c1nc(NCc2ccccc2)nc(SCC(=O)Nc2ccccc2)n1` [CBK268810], the viability at 28.5 h, 10 µM is reported as 88.9%.

For `Cc1nc(SCC(=O)O)nc(O)c1CCC(C)C` [CBK269920], the viability at 28.5 h, 10 µM was 92.9%.

In the case of `Cc1nc2ccccc2c(C(=O)O)c1-c1ccccc1` [CBK274187], the viability at 28.5 h, 10 µM is reported as 91.5%.

For `O=C(NCC1CCCN1)c1cc2cc(Cl)ccc2[nH]1` (centres unmarked) [CBK115917C], the viability at 28.5 h, 10 µM was 104%.

Compound `CCc1cccc(NC(=O)CCc2ccccc2)c1` [CBK263637] has a viability at 28.5 h, 10 µM of 112%.

Compound `CCOC(=O)C1CCCN(C(=O)CCn2c(=O)oc3cc(Cl)ccc32)C1` (centres unmarked) [CBK304516] has a viability at 28.5 h, 10 µM of 93.8%.

Compound `Cc1sc(NC(=O)C2C3C=CC(C3)C2C(=O)O)c(C(N)=O)c1C` (centres unmarked) [CBK263685] has a viability at 28.5 h, 10 µM of 87.6%.

Compound `COc1cccc(-c2nnc(SCC(=O)Nc3cc(C)on3)o2)c1` [CBK287391] has a viability at 28.5 h, 10 µM of 89.9%.

In the case of `c1ccc(-c2nc3cnccn3c2Nc2ccc3c(c2)OCCO3)cc1` [CBK287857], the viability at 28.5 h, 10 µM is reported as 94.4%.

`CC(=O)[C@H]1C[C@@H](CC(=O)Nc2cc3cccnc3nc2Cl)C1(C)C` [CBK091351] gave a viability at 28.5 h, 10 µM of 95.7%.

With `CC(C)CNC(=O)N1CCN(Cc2ccccc2)CC1` [CBK155644] the viability at 28.5 h, 10 µM was 110%.

Compound `COCCNC(=O)c1sc2ccccc2c1C1CCN(Cc2ccc3ncccc3c2)C1` (centres unmarked) [CBK285680] has a viability at 28.5 h, 10 µM of 85.2%.

`Cc1ccc(S(=O)(=O)c2ccc(C)c(S(=O)(=O)N3CCC(C)CC3)c2)cc1S(=O)(=O)N1CCC(C)CC1` [CBK261743] gave a viability at 28.5 h, 10 µM of 95.8%.

For `COc1ccc(C(=O)CSc2nnc(C(O)c3ccccc3)n2-c2ccccc2)cc1` (centres unmarked) [CBK265104], the viability at 28.5 h, 10 µM was 109%.
